Where a name gives a salt, the structure may show the parent alone.

One may read the IC50 as the concentration that gives 50% inhibition.

The test system of the experiment is KMS.12.BM cells. The experiment in a line: KMS.12.BM Cell Viability Assay (Example B1). It is filed as cell-based, human. As to conditions: Homo sapiens, 72 h, 3 days, Cell Titer-GLO, read-out: KMS cellular IC50. In short, it runs like this:
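KMS.12.BM human myeloma cells, 5000 cells/well in RPMI with 10% FBS, exposed to a compound concentration range for 3 days. Viable cells measured by ATP-based Cell Titer-GLO luminescence after 10 min at room temperature.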
For orientation: In ATP-based viability assays light output follows the ATP content of the culture.
`Cc1noc(C)c1-c1ccc2nc(N3CCCN(C(=O)OC(C)(C)C)CC3)n3c2c1OC[C@@H]3c1ccccn1` [Example 197, tert-butyl 4-[(4S)-7-(3,5-dimethylisoxazol-4-yl)-4-pyridin-2-yl-4,5-dihydroimidazo[1,5,4-de][1,4]benzoxazin-2-yl]-1,4-diazepane-1-carboxylate]: the 50% inhibitory concentration (IC50) is < 1000 nM. To `CC(=O)N[C@@H]1CCN(c2nc3ccc(-c4c(C)noc4C)c4c3n2[C@@H](c2ccccn2)CO4)C1` [Example 201A, N-{(3R)-1-[(4S)-7-(3,5-dimethylisoxazol-4-yl)-4-pyridin-2-yl-4,5-dihydroimidazo[1,5,4-de][1,4]benzoxazin-2-yl]pyrrolidin-3-yl}acetamide] belongs < 1000 nM; to `CC(=O)N[C@H]1CCN(c2nc3ccc(-c4c(C)noc4C)c4c3n2[C@@H](c2ccccn2)CO4)C1` [Example 201B, N-{(3S)-1-[(4S)-7-(3,5-dimethylisoxazol-4-yl)-4-pyridin-2-yl-4,5-dihydroimidazo[1,5,4-de][1,4]benzoxazin-2-yl]pyrrolidin-3-yl}acetamide], < 1000 nM.

As for `Cc1noc(C)c1-c1ccc2nc(N3CC[C@@H](NC(=O)C(F)(F)F)C3)n3c2c1OC[C@@H]3c1ccccn1` [Example 203, N-{(3R)-1-[(4S)-7-(3,5-dimethylisoxazol-4-yl)-4-pyridin-2-yl-4,5-dihydroimidazo[1,5,4-de][1,4]benzoxazin-2-yl]pyrrolidin-3-yl}-2,2,2-trifluoroacetamide], the 50% inhibitory concentration (IC50) is < 1000 nM. Turning to `COCC(=O)N[C@@H]1CCN(c2nc3ccc(-c4c(C)noc4C)c4c3n2[C@@H](c2ccccn2)CO4)C1` [Example 205, N-{(3R)-1-[(4S)-7-(3,5-dimethylisoxazol-4-yl)-4-pyridin-2-yl-4,5-dihydroimidazo[1,5,4-de][1,4]benzoxazin-2-yl]pyrrolidin-3-yl}-2-methoxyacetamide], the IC50 was < 1000 nM. Regarding `Cc1noc(C)c1-c1ccc2nc(N3CC[C@@H](NC(=O)C4CC4)C3)n3c2c1OC[C@@H]3c1ccccn1` [Example 206, N-{(3R)-1-[(4S)-7-(3,5-dimethylisoxazol-4-yl)-4-pyridin-2-yl-4,5-dihydroimidazo[1,5,4-de][1,4]benzoxazin-2-yl]pyrrolidin-3-yl}cyclopropanecarboxamide], the half-maximal inhibitory concentration (IC50) is < 1000 nM. To `Cc1noc(C)c1-c1ccc2nc(N3CC[C@@H](NS(C)(=O)=O)C3)n3c2c1OC[C@@H]3c1ccccn1` [Example 207, N-{(3R)-1-[(4S)-7-(3,5-dimethylisoxazol-4-yl)-4-pyridin-2-yl-4,5-dihydroimidazo[1,5,4-de][1,4]benzoxazin-2-yl]pyrrolidin-3-yl}methanesulfonamide] belongs < 1000 nM; to `CCC(=O)N[C@@H]1CCN(c2nc3ccc(-c4c(C)noc4C)c4c3n2[C@@H](c2ccccn2)CO4)C1` [Example 208, N-{(3R)-1-[(4S)-7-(3,5-dimethylisoxazol-4-yl)-4-pyridin-2-yl-4,5-dihydroimidazo[1,5,4-de][1,4]benzoxazin-2-yl]pyrrolidin-3-yl}propanamide], < 1000 nM; to `Cc1noc(C)c1-c1ccc2nc(N3CC[C@@H](NC(=O)C(C)C)C3)n3c2c1OC[C@@H]3c1ccccn1` [Example 209, N-{(3R)-1-[(4S)-7-(3,5-dimethylisoxazol-4-yl)-4-pyridin-2-yl-4,5-dihydroimidazo[1,5,4-de][1,4]benzoxazin-2-yl]pyrrolidin-3-yl}-2-methylpropanamide], < 1000 nM. On to `Cc1noc(C)c1-c1ccc2nc(N3CC[C@@H](NC(=O)C4CCC4)C3)n3c2c1OC[C@@H]3c1ccccn1` [Example 210, N-{(3R)-1-[(4S)-7-(3,5-dimethylisoxazol-4-yl)-4-pyridin-2-yl-4,5-dihydroimidazo[1,5,4-de][1,4]benzoxazin-2-yl]pyrrolidin-3-yl}cyclobutanecarboxamide], for which the IC50 is < 1000 nM.

As for `Cc1noc(C)c1-c1ccc2nc(N3CC[C@@H](NC(=O)CC#N)C3)n3c2c1OC[C@@H]3c1ccccn1` [Example 211, 2-cyano-N-{(3R)-1-[(4S)-7-(3,5-dimethylisoxazol-4-yl)-4-pyridin-2-yl-4,5-dihydroimidazo[1,5,4-de][1,4]benzoxazin-2-yl]pyrrolidin-3-yl}acetamide], the IC50 is < 1000 nM. In the case of `Cc1noc(C)c1-c1ccc2nc(N3CC[C@@H](NC(=O)C4CCOCC4)C3)n3c2c1OC[C@@H]3c1ccccn1` [Example 213, N-{(3R)-1-[(4S)-7-(3,5-dimethylisoxazol-4-yl)-4-pyridin-2-yl-4,5-dihydroimidazo[1,5,4-de][1,4]benzoxazin-2-yl]pyrrolidin-3-yl}tetrahydro-2H-pyran-4-carboxamide], the IC50 was < 1000 nM. For `CCS(=O)(=O)N[C@@H]1CCN(c2nc3ccc(-c4c(C)noc4C)c4c3n2[C@@H](c2ccccn2)CO4)C1` [Example 214, N-{(3R)-1-[(4S)-7-(3,5-dimethylisoxazol-4-yl)-4-pyridin-2-yl-4,5-dihydroimidazo[1,5,4-de][1,4]benzoxazin-2-yl]pyrrolidin-3-yl}ethanesulfonamide], the 50% inhibitory concentration (IC50) was < 1000 nM. To `CCCS(=O)(=O)N[C@@H]1CCN(c2nc3ccc(-c4c(C)noc4C)c4c3n2[C@@H](c2ccccn2)CO4)C1` [Example 215, N-{(3R)-1-[(4S)-7-(3,5-dimethylisoxazol-4-yl)-4-pyridin-2-yl-4,5-dihydroimidazo[1,5,4-de][1,4]benzoxazin-2-yl]pyrrolidin-3-yl}propane-1-sulfonamide] belongs < 1000 nM; to `Cc1noc(C)c1-c1ccc2nc(N3CC[C@@H](NS(=O)(=O)C(C)C)C3)n3c2c1OC[C@@H]3c1ccccn1` [Example 217, N-{(3R)-1-[(4S)-7-(3,5-dimethylisoxazol-4-yl)-4-pyridin-2-yl-4,5-dihydroimidazo[1,5,4-de][1,4]benzoxazin-2-yl]pyrrolidin-3-yl}propane-2-sulfonamide], < 1000 nM.

With `Cc1noc(C)c1-c1ccc2nc(N3CC[C@@H](NS(=O)(=O)C4CC4)C3)n3c2c1OC[C@@H]3c1ccccn1` [Example 218, N-{(3R)-1-[(4S)-7-(3,5-dimethylisoxazol-4-yl)-4-pyridin-2-yl-4,5-dihydroimidazo[1,5,4-de][1,4]benzoxazin-2-yl]pyrrolidin-3-yl}cyclopropanesulfonamide], the IC50 is < 1000 nM. `Cc1noc(C)c1-c1ccc2nc(N3CC[C@@H](N(C)S(C)(=O)=O)C3)n3c2c1OC[C@@H]3c1ccccn1` [Example 220, N-{(3R)-1-[(4S)-7-(3,5-dimethylisoxazol-4-yl)-4-pyridin-2-yl-4,5-dihydroimidazo[1,5,4-de][1,4]benzoxazin-2-yl]pyrrolidin-3-yl}-N-methylmethanesulfonamide]: the 50% inhibitory concentration (IC50) is < 1000 nM. Regarding `COCC(=O)N(C)[C@@H]1CCN(c2nc3ccc(-c4c(C)noc4C)c4c3n2[C@@H](c2ccccn2)CO4)C1` [Example 221, N-{(3R)-1-[(4S)-7-(3,5-dimethylisoxazol-4-yl)-4-pyridin-2-yl-4,5-dihydroimidazo[1,5,4-de][1,4]benzoxazin-2-yl]pyrrolidin-3-yl}-2-methoxy-N-methylacetamide], the IC50 was < 1000 nM. For `CC(=O)N(C)[C@@H]1CCN(c2nc3ccc(-c4c(C)noc4C)c4c3n2[C@@H](c2ccccn2)CO4)C1` [Example 222, N-{(3R)-1-[(4S)-7-(3,5-dimethylisoxazol-4-yl)-4-pyridin-2-yl-4,5-dihydroimidazo[1,5,4-de][1,4]benzoxazin-2-yl]pyrrolidin-3-yl}-N-methylacetamide], the IC50 was < 1000 nM.

Regarding `CC(=O)N1CCN(c2nc3ccc(-c4c(C)noc4C)c4c3n2[C@@H](c2ccccn2)CO4)CC1` [Example 224, (4S)-2-(4-acetylpiperazin-1-yl)-7-(3,5-dimethylisoxazol-4-yl)-4-pyridin-2-yl-4,5-dihydroimidazo[1,5,4-de][1,4]benzoxazine], the concentration for half-maximal inhibition (IC50) was < 1000 nM.

As for `CCC(=O)N1CCN(c2nc3ccc(-c4c(C)noc4C)c4c3n2[C@@H](c2ccccn2)CO4)CC1` [Example 225, (4S)-7-(3,5-dimethylisoxazol-4-yl)-2-(4-propionylpiperazin-1-yl)-4-pyridin-2-yl-4,5-dihydroimidazo[1,5,4-de][1,4]benzoxazine], the 50% inhibitory concentration (IC50) was < 1000 nM.

Consider `CCS(=O)(=O)N1CCN(c2nc3ccc(-c4c(C)noc4C)c4c3n2[C@@H](c2ccccn2)CO4)CC1` [Example 226, (4S)-7-(3,5-dimethylisoxazol-4-yl)-2-[4-(ethylsulfonyl)piperazin-1-yl]-4-pyridin-2-yl-4,5-dihydroimidazo[1,5,4-de][1,4]benzoxazine], for which the IC50 is < 1000 nM. Turning to `Cc1noc(C)c1-c1ccc2nc(N3CCN(CC(=O)N4CCCC4)CC3)n3c2c1OC[C@@H]3c1ccccn1` [Example 228, (4S)-7-(3,5-dimethylisoxazol-4-yl)-2-[4-(2-oxo-2-pyrrolidin-1-ylethyl)piperazin-1-yl]-4-pyridin-2-yl-4,5-dihydroimidazo[1,5,4-de][1,4]benzoxazine], the IC50 is < 1000 nM. Regarding `Cc1noc(C)c1-c1ccc2nc(N3CCN(S(N)(=O)=O)CC3)n3c2c1OC[C@@H]3c1ccccn1` [Example 229, 4-[(4S)-7-(3,5-dimethylisoxazol-4-yl)-4-pyridin-2-yl-4,5-dihydroimidazo[1,5,4-de][1,4]benzoxazin-2-yl]piperazine-1-sulfonamide], the concentration for half-maximal inhibition (IC50) was < 1000 nM. In the case of `Cc1noc(C)c1-c1ccc2nc(N3CC(N)C3)n3c2c1OC[C@@H]3c1ccccn1` [Example 230, 1-[(4S)-7-(3,5-dimethylisoxazol-4-yl)-4-pyridin-2-yl-4,5-dihydroimidazo[1,5,4-de][1,4]benzoxazin-2-yl]azetidin-3-amine trihydrochloride], the half-maximal inhibitory concentration (IC50) is < 1000 nM. With `CC(=O)NC1CN(c2nc3ccc(-c4c(C)noc4C)c4c3n2[C@@H](c2ccccn2)CO4)C1` [Example 231, N-{1-[(4S)-7-(3,5-dimethylisoxazol-4-yl)-4-pyridin-2-yl-4,5-dihydroimidazo[1,5,4-de][1,4]benzoxazin-2-yl]azetidin-3-yl}acetamide], the concentration for half-maximal inhibition (IC50) was < 1000 nM.

For the origin of these results see patent publication US10464947B2 (Incyte Corporation, priority 2013, dated 2019).
